Source: US11427548B2 (Arvinas Operations, Inc., priority 2015, dated 2022)
Read-outs that look alike come from different tables or passages of the source.

Biological target: T1, Androgen Receptor (Homo sapiens, UniProt P10275)
T1 construct: endogenous in cells; host or cells: VCaP cells
T1 sequence (P10275 1-920): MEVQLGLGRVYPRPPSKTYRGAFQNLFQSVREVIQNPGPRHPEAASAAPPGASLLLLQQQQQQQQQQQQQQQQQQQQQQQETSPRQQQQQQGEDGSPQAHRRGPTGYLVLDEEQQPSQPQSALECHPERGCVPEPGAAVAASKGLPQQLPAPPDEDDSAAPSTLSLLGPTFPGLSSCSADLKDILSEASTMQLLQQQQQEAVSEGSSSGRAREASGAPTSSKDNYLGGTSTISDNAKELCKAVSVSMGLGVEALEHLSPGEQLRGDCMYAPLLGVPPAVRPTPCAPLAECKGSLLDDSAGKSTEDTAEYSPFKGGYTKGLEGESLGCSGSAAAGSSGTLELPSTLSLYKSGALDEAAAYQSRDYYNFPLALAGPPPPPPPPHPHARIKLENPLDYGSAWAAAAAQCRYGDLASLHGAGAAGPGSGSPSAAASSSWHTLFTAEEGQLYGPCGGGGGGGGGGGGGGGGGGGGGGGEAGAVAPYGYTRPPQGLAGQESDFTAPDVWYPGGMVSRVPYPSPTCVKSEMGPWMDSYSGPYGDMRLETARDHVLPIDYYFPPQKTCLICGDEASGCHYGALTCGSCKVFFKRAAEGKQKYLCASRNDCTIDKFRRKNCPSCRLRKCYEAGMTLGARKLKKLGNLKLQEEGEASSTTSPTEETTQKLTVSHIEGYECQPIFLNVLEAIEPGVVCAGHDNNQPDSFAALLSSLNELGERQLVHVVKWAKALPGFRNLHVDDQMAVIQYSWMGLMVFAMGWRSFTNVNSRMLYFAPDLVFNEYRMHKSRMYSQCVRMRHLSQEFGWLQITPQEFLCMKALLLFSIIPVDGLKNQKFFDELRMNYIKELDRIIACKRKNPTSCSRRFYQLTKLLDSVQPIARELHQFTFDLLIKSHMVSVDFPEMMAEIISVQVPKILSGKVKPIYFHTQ
Test: Androgen Receptor ELISA assay (PathScan AR ELISA) in VCaP cells: AR degradation, Dmax and DC50
Type: cell-based
In short: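 VCaP cells in phenol red-free RPMI with 5% charcoal-stripped FBS were grown at least 3 days, then given compound as 7 half-log doses in 0.1% DMSO with 0.1 nM R1881 for 24 h. Lysates went into a sandwich AR ELISA with TMB read at 450 nm.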

[1] = VCaP cells; Table 36; read-out: VCaP DC50
[2] = VCaP, VCaP cells; Table 36; read-out: VCaP Dmax (%)
[3] = VCaP cells; Table 35; read-out: VCaP DC50
[4] = VCaP, VCaP cells; Table 35; read-out: VCaP Dmax (%)

Cc1ncsc1-c1ccc([C@H](C)NC(=O)C2C[C@@H](O)CN2C(=O)C(NC(=O)CN2CCN(CCCCc3ccc(C(=O)N[C@H]4C(C)(C)[C@H](Oc5ccc(C#N)c(C(F)(F)F)c5)C4(C)C)cc3)CC2)C(C)(C)C)cc1 (stereo partly drawn) [Example 723, (2S,4R)-1-((S)-2-(2-(4-(4-(4-(((1r,3r)-3-(4-cyano-3-(trifluoromethyl)phenoxy)-2,2,4,4-tetramethylcyclobutyl)carbamoyl)phenyl)butyl)piperazin-1-yl)actamido)-3,3-dimethylbutanoyl)-4-hydroxy-N-((S)-1-(4-(4-methylthiazol-5-yl)phenyl)ethyl)pyrrolidine-2-carboxamide]
DC50 [1]: < 50 nM | Dmax [2]: > 71%

Cc1ncsc1-c1ccc([C@H](C)NC(=O)C2C[C@@H](O)CN2C(=O)C(NC(=O)CCC(F)(F)CN2CCN(c3ccc(C(=O)N[C@H]4C(C)(C)[C@H](Oc5ccc(C#N)c(Cl)c5)C4(C)C)cn3)CC2)C(C)(C)C)cc1 (stereo partly drawn) [Example 799, N-((1r,3r)-3-(3-chloro-4-cyanophenoxy)-2,2,4,4-tetramethylcyclobutyl)-6-(4-(2,2-difluoro-5-(((S)-1-((2S,4R)-4-hydroxy-2-(((S)-1-(4-(4-methylthiazol-5-yl)phenyl)ethyl)carbamoyl)pyrrolidin-1-yl)-3,3-dimethyl-1-oxobutan-2-yl)amino)-5-oxopentyl)piperazin-1-yl)nicotinamide]
DC50 [1]: < 50 nM | Dmax [2]: 51 to 70%

Cc1ncsc1-c1ccc([C@H](C)NC(=O)[C@@H]2C[C@@H](O)CN2C(=O)[C@@H](C(C)C)n2cc(-c3ccnc(N4CC[C@@H](Nc5ccc(C(=O)N[C@H]6C(C)(C)[C@H](Oc7ccc(C#N)c(Cl)c7)C6(C)C)cc5)C4)c3)cn2)cc1 [Example 597, (2S,4R)-1-((R)-2-(4-(2-((R)-3-((4-(((1r,3R)-3-(3-chloro-4-cyanophenoxy)-2,2,4,4-tetramethylcylcobutyl)carbamoyl)phenyl)amino)pyrrolidin-1-yl)pyridin-4-yl)-1H-pyrazol-1-yl)-3-methylbutanoyl)-4-hydroxy-N-((S)-1-(4-(4-methylthiazol-5-yl)phenyl)ethyl)pyrroli-dine-2-carboxamide]
DC50 [1]: > 501 nM | Dmax [2]: < 25%

CC(C)(C)[C@H](NC(=O)COCCN1CCN(c2ccc(C(=O)N[C@H]3C(C)(C)[C@H](Oc4ccc(C#N)c(Cl)c4)C3(C)C)cn2)CC1)C(=O)N1C[C@H](O)C[C@H]1C(=O)NCc1ccc(C2CCCC2)cc1 [Example 759, N-((1r,3r)-3-(3-chloro-4-cyanophenoxy)-2,2,4,4-tetramethylcyclobutyl)-6-(4-(2-(2-(((S)-1-((2S,4R)-2-((4-cyclopentylbenzyl)car-bamoyl)-4-hydroxypyrrolidin-1-yl)-3,3-dimethyl-1-oxobutan-2-yl)amino)-2-oxoethoxy)ethyl)pipera-zin-1-yl)nicotinamide]
DC50 [1]: > 501 nM | Dmax [2]: < 25%

Cc1ncsc1-c1ccc([C@H](CN)NC(=O)[C@@H]2C[C@@H](O)CN2C(=O)[C@@H](NC(=O)COCCCCCOc2ccc(C(=O)N[C@H]3C(C)(C)[C@H](Oc4ccc(C#N)c(Cl)c4)C3(C)C)cc2)C(C)(C)C)cc1 [Example 475]
DC50 [3]: < 50 nM | Dmax [4]: > 71%

Cc1ncsc1-c1ccc([C@H](C)NC(=O)[C@@H]2C[C@@H](O)CN2C(=O)[C@@H](NC(=O)CN2CCO[C@H](CN3CCO[C@@H](COc4ccc(N5C(=S)N(c6ccc(C#N)c(C(F)(F)F)c6)C(=O)C5(C)C)cc4)C3)C2)C(C)(C)C)cc1 [Example 622, (2S,4R)-1-((S)-2-(2-((R)-2-(((R)-2-((4-(3-(4-cyano-3-(trifluoromethyl)phenyl)-5,5-dimethyl-4-oxo-2-thioxoimidazolidin-1-yl)phenoxy)methyl)mor-pholino)methyl)mor-pholino)acetamido)-3,3-dimethylbutanoyl)-4-hydroxy-N-((S)-1-(4-(4-methylthiazol-5-yl)phenyl)ethyl)pyrrolidine-2-carboxamide]
Dmax (VCaP, read-out: VCaP Dmax (%)): < 25% | DC50 (read-out: VCaP DC50; VCaP cells; Table 36): > 501 nM

Cc1ncsc1-c1ccc([C@H](C)NC(=O)C2C[C@@H](O)CN2C(=O)C(NC(=O)CN2CCN(CCN3CCN(c4ccc(C(=O)NC5C(C)(C)C(Oc6ccc(C#N)c(Cl)c6)C5(C)C)cn4)C[C@H]3CO)CC2)C(C)(C)C)cc1 (stereo partly drawn) [Example 843, N-((1r,3S)-3-(3-chloro-4-cyanophenoxy)-2,2,4,4-tetramethylcyclobutyl)-6-((S)-4-(2-(4-(2-(((S)-1-((2S,4R)-4-hydroxy-2-(((S)-1-(4-(4-methylthiazol-5-yl)phenyl)ethyl)carbamoyl)pyrrolidin-1-yl)-3,3-dimethyl-1-oxobutan-2-yl)amino)-2-oxoethyl)piperazin-1-yl)ethyl)-3-(hydroxymethyl)piperazin-1-yl) nicotinamide]
DC50 [1]: < 50 nM | Dmax [2]: 51 to 70%

Cc1ncsc1-c1ccc([C@H](C)NC(=O)[C@@H]2C[C@@H](O)CN2C(=O)[C@@H](C(C)C)n2cc(OCCCOCCCCCOc3ccc(N4C(=S)N(c5ccc(C#N)c(C(F)(F)F)c5)C(=O)C4(C)C)cc3)cn2)cc1 [Example 434]
DC50 (read-out: VCaP DC50; VCaP cells; Table 35): > 501 nM

Cc1ncsc1-c1ccc([C@H](C)NC(=O)[C@@H]2C[C@@H](O)CN2C(=O)[C@@H](NC(=O)COCCN2CCN(c3cnc(C(=O)N[C@H]4C(C)(C)[C@H](Oc5ccc(C#N)c(C(F)(F)F)c5)C4(C)C)cn3)CC2)C(C)(C)C)cc1 [Example 689, N-((1r,3r)-3-(4-cyano-3-(trifluoromethyl)phenoxy)-2,2,4,4-tetramethylcyclobutyl)-5-(4-(2-(2-(((S)-1-((2S,4R)-4-hydroxy-2-(((S)-1-(4-(4-methylthiazol-5-yl)phenyl)ethyl)carbam-oyl)pyrrolidin-1-yl)-3,3-dimethyl-1-oxobutan-2-yl)amino)-2-oxoethoxy)ethyl)pipera-zin-1-yl)pyrazine-2-carboxamide]
DC50 [1]: < 50 nM | Dmax [2]: > 71%

CC(C)(C)[C@H](NC(=O)COCC#CC#CCOc1ccc(N2C(=S)N(c3ccc(C#N)c(C(F)(F)F)c3)C(=O)C2(C)C)cc1F)C(=O)N1C[C@H](O)C[C@H]1C(=O)NCc1ccc(-c2cnco2)cc1 [Example 61, (2S,4R)-1-[(2S)-2-(2-{[6-(4-{3-[4-cyano-3-(trifluoromethyl)phenyl]-5,5-dimethyl-4-oxo-2-sulfanylideneimidazolidin-1-yl}-2-fluorophenoxy)hexa-2,4-diyn-1-yl]oxy}acetamido)-3,3-dimethylbutanoyl]-4-hydroxy-N-{[4-(1,3-oxazol-5-yl)phenyl]methyl}pyrrolidine-2-carboxamide]
Dmax (VCaP, read-out: VCaP Dmax (%)): 51 to 70% | DC50 (read-out: VCaP DC50; concentration that caused 50% Androgen Receptor degradation, VCaP cells): 51 to 500 nM

Cc1ncsc1-c1ccc([C@H](C)NC(=O)[C@@H]2CC(O)CN2C(=O)[C@H](C(C)C)N2Cc3cc(OCCN4CCN(c5ccc(C(=O)N[C@H]6C(C)(C)[C@H](Oc7ccc(C#N)c(Cl)c7)C6(C)C)cn5)CC4)ccc3C2=O)cc1 (stereo partly drawn) [Example 848, N-((1r,3r)-3-(3-chloro-4-cyanophenoxy)-2,2,4,4-tetramethylcyclobutyl)-6-(4-(2-((2-((S)-1-((2S, 4R)-4-hydroxy-2-(((S)-1-(4-(4-methylthiazol-5-yl)phenyl)ethyl)carbamoyl)pyrrolidin-1-yl)-3-methyl-1-oxobutan-2-yl)-1-oxoisoindolin-5-yl)oxy)ethyl)piperazin-1-yl)nicotinamide]
DC50 [1]: < 50 nM | Dmax [2]: > 71%

CC(C)(C)[C@H](NC(=O)COCCCCOc1ccc(-c2ccc(N3C(=S)N(c4cnc(C#N)c(C(F)(F)F)c4)C(=O)C3(C)C)cc2)cc1)C(=O)N1C[C@H](O)C[C@H]1C(=O)NCc1ccc(-c2cnco2)cc1 [Example 190, (2S,4R)-1-[(2S)-2-(2-{4-[4-(4-{3-[6-cyano-5-(trifluoromethyl)pyridin-3-yl]-5,5-dimethyl-4-oxo-2-sulfanylideneimidazolidin-1-yl}phenyl)phenoxy]butoxy}acetamido)-3,3-dimethylbutanoyl]-4-hydroxy-N-{[4-(1,3-oxazol-5-yl)phenyl]methyl}pyrrolidine-2-carboxamide]
DC50 (VCaP cells; concentration that caused 50% Androgen Receptor degradation; read-out: VCaP DC50): < 50 nM | Dmax (VCaP, VCaP cells; highest percentage of Androgen Receptor degradation; read-out: VCaP Dmax (%)): > 71%

Cc1ncsc1-c1ccc([C@H](C)NC(=O)[C@H]2C[C@@H](O)CN2C(=O)[C@@H](NC(=O)COCCCCCNc2ccc(C(=O)N[C@H]3C(C)(C)[C@H](Oc4ccc(C#N)c(Cl)c4)C3(C)C)cc2)C(C)(C)C)cc1 [Example 458]
DC50 [3]: > 501 nM | Dmax [4]: < 25%
